Reference: patent US9382254B2, “Compounds and pharmaceutical compositions thereof for the treatment of cystic fibrosis” (Galapagos NV, priority 2013, dated 2016)

Biological target: T1, CFTR ΔF508 mutant (Homo sapiens, UniProt P13569, DEL508-508)
T1 construct: expressed in transfected cells; host or cells: CFBE41o- (adenoviral transduction)
Test: YFP-halide influx assay for the CFTR-ΔF508 mutation, gluconate buffer
Format: cell-based
Details: CFBE41o- cells, forskolin 10.67 μM
Source text: The YFP halide influx assay measures the functionality of the cystic fibrosis Transmembrane Conductance regulator (CFTR) channels in the cystic fibrosis bronchial epithelium cell line CFBE41o-. The assay is used to evaluate the capacity of compounds to increase the open probability of existing CFTR channels in the membrane. It makes use of the observation that the yellow fluorescent protein (YFP) variant YFP H148Q, I152L has its fluorescence substantially quenched by halide ions like Cl^− and I^−. (Galietta, Haggie, & Verkman, 2001) (Nagai, et al., 2002)
For this purpose, CFBE41o-cells are seeded in 96 well plates (6000 CFBE cells/well). One day after seeding, the CFBE cells are transduced with adenoviral vectors that direct the expression of the CFTR ΔF508 mutant and of the YFP reporter. Cells are incubated at 27° C., 5% CO2 for 24 hours so as to allow for the proper folding and migration to the membrane of the CFTR channel or treated with a CFTR modulator during 24 hours at 37° C.
The I^−-induced quenching of fluorescence is recorded immediately after injection of I^− for 7 seconds. The capacity of a compound to increase the channel opening is directly correlated with the decrease in fluorescence, and is expressed as (1-(fluorescence after 7 seconds (F)/fluorescence before injection (F0))) and an EC50 can be derived from a (1-F/F0) vs compound concentration plot.

T1 sequence (P13569 with tags, fused parts or gaps DEL508-508): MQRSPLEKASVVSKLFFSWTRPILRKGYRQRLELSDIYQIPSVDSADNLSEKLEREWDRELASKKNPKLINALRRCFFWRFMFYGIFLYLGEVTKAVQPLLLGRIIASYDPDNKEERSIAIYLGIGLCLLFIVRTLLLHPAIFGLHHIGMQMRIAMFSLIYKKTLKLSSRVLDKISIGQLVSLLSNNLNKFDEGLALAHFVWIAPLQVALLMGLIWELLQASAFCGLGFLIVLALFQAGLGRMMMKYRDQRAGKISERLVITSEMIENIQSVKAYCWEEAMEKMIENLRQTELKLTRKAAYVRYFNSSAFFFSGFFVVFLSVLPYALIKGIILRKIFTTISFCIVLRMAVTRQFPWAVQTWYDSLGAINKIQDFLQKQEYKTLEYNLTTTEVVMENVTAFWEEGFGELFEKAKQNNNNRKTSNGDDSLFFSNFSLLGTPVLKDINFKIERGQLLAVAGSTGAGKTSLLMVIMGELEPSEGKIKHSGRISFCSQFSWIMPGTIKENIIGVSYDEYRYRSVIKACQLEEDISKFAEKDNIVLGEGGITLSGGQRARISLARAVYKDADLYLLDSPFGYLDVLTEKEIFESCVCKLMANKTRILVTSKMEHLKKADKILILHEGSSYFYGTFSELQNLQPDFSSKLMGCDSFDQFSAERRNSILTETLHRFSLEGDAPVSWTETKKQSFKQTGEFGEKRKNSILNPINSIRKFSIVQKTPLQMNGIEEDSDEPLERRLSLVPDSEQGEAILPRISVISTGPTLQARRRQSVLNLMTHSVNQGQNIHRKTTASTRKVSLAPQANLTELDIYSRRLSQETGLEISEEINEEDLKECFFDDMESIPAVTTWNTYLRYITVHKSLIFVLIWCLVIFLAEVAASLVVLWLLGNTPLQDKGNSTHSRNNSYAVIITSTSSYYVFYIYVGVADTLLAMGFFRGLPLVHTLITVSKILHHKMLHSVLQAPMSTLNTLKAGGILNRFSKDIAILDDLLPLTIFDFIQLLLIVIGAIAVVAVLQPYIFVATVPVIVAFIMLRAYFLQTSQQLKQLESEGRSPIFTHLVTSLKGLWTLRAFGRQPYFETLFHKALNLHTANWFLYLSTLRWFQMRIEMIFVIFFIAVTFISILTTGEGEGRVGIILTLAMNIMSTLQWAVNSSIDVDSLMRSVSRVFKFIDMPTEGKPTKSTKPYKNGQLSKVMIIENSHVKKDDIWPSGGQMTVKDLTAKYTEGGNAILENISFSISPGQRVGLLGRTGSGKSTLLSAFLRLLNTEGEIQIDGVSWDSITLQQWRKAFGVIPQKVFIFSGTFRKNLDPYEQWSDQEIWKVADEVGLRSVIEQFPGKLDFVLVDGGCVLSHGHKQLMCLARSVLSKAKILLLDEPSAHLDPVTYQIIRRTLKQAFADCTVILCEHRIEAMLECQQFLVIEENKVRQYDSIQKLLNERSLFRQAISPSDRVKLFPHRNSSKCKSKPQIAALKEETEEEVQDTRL

Compound	EC50 [nM]
NC(=O)c1cc(S(=O)(=O)N2CCCCC2)sc1NC(=O)C1CCC(F)(F)CC1 [Compound 37, 2-(4,4-difluorocyclohexanecarboxamide)-5-(piperidin-1-ylsulfonyl) thiophene-3-carboxamide]	293
NC(=O)c1cc(S(=O)(=O)N2CCCCC2)sc1NC(=O)C1(C(F)(F)F)CC1 [Compound 38, 5-(piperidin-1-ylsulfonyl)-2-(1-(trifluoromethyl)cyclopropanecarboxamido) thiophene-3-carboxamide]	900
NC(=O)c1cc(S(=O)(=O)N2CCCCC2)sc1NC(=O)c1ccc(F)s1 [Compound 39, N-(3-carbamoyl-5-(piperidin-1-ylsulfonyl)thiophen-2-yl)-5-fluorothiophene-2-carboxamide]	293
NC(=O)c1cc(S(=O)(=O)N2CCCCC2)sc1NC(=O)CCc1ccccc1 [Compound 40, 2-(3-phenylpropanamido)-5-(piperidin-1-ylsulfonyl) thiophene-3-carboxamide]	574
NC(=O)c1cc(S(=O)(=O)N2CCCCC2)sc1NC(=O)c1cnn2cccnc12 [Compound 41, N-(3-carbamoyl-5-(piperidin-1-ylsulfonyl)thiophen-2-yl)pyrazolo[1,5-a]pyrimidine-3-carboxamide]	9840
NC(=O)c1cc(S(=O)(=O)N2CCCCC2)sc1NC(=O)C1CC1 [Compound 42, 2-(cyclopropanecarboxamido)-5-(piperidin-1-ylsulfonyl) thiophene-3-carboxamide]	739
CC(C)(C)n1cc(C(=O)Nc2sc(S(=O)(=O)N3CCCCC3)cc2C(N)=O)cn1 [Compound 43, 1-tert-butyl-N-(3-carbamoyl-5-(piperidin-1-ylsulfonyl)thiophen-2-yl)-1H-pyrazole-4-carboxamide]	670
NC(=O)c1cc(S(=O)(=O)N2CCCCC2)sc1NC(=O)C1CC(F)(F)C1 [Compound 44, 2-(3,3-difluorocyclobutanecarboxamido)-5-(piperidin-1-ylsulfonyl) thiophene-3-carboxamide]	696
CC1(C(=O)Nc2sc(S(=O)(=O)N3CCOCC3)cc2C(N)=O)CC1 [Compound 45, 2-(1-methylcyclopropanecarboxamido)-5-(morpholinosulfonyl) thiophene-3-carboxamide]	1280
NC(=O)c1cc(S(=O)(=O)N2CCOCC2)sc1NC(=O)c1ccccc1F [Compound 46, 2-(2-fluorobenzamido)-5-(morpholinosulfonyl) thiophene-3-carboxamide]	284
CC(C)(C)C(=O)Nc1sc(S(=O)(=O)N2CCOCC2)cc1C(N)=O [Compound 47, 5-(morpholinosulfonyl)-2-pivalamidothiophene-3-carboxamide]	2660
COc1ccccc1C(=O)Nc1sc(S(=O)(=O)N2CCOCC2)cc1C(N)=O [Compound 48, 2-(2-methoxybenzomido)-5-(morpholinosulfonyl) thiophene-3-carboxamide]	253
CC(C)(C)c1ccc(C(=O)Nc2sc(S(=O)(=O)N3CCOCC3)cc2C(N)=O)cc1 [Compound 49, 2-(4-tert-butylbenzamido)-5-(morpholinosulfonyl) thiophene-3-carboxamide]	842
NC(=O)c1cc(S(=O)(=O)N2CCOCC2)sc1NC(=O)c1cc2ccccc2s1 [Compound 50, N-(3-carbamoyl-5-(morpholinosulfonyl)thiophen-2-yl)benzo[b] thiophene-2-carboxamide]	391
CC(C)(C)c1ccc(C(=O)Nc2sc(S(=O)(=O)N3CCOCC3)cc2C(N)=O)s1 [Compound 51, 5-tert-butyl-N-(3-carbamoyl-5-(morpholinosulfonyl)thiophen-2-yl) thiophene-2-carboxamide]	599

Now from value to compound:

EC50 [nM]	Compound
204	NC(=O)c1cc(S(=O)(=O)N2CCCCC2)sc1NC(=O)c1ccccc1C1CC1 [Compound 52, 2-(2-cyclopropylbenzamido)-5-(piperidin-1-ylsulfonyl) thiophene-3-carboxamide]
1260	NC(=O)c1cc(S(=O)(=O)N2CCCCC2)sc1NC(=O)c1cccc(-n2cccn2)c1 [Compound 53, 2-(3-(1H-pyrazol-1-yl)benzamido)-5-(piperidin-1-ylsulfonyl)thiophene-3-carboxamide]
3160	NC(=O)c1cc(S(=O)(=O)N2CCCCC2)sc1NC(=O)c1cccc(-c2cc[nH]n2)c1 [Compound 54, 2-(3-(1H-pyrazol-3-yl)benzamido)-5-(piperidin-1-ylsulfonyl)thiophene-3-carboxamide]
3330	NC(=O)c1cc(S(=O)(=O)N2CCCC2)sc1NC(=O)c1cc2ccccc2s1 [Compound 55, N-(3-carbamoyl-5-(pyrrolidini-1-ylsulfonyl)thiophen-2-yl)benzo[b] thiophene-2-carboxamide]
206	NC(=O)c1cc(S(=O)(=O)N2CCCC2)sc1NC(=O)c1cc[nH]n1 [Compound 56, N-(3-carbamoyl-5-(pyrrolidin-1-ylsulfonyl)thiophen-2-yl)-1H-pyrazole-3-carboxamide]
2490	NC(=O)c1cc(S(=O)(=O)N2CCCCC2)sc1NC(=O)C1(c2ccccc2)CC1 [Compound 57, 2-(1-phenylcyclopropanecarboxamido)-5-(piperidin-1-ylsulfonyl) thiophene-3-carboxamide]
3330	N#CC1(C(=O)Nc2sc(S(=O)(=O)N3CCCCC3)cc2C(N)=O)CC1 [Compound 58, 2-(1-cyanocyclopropanecarboxamido)-5-(piperidin-1-ylsulfonyl) thiophene-3-carboxamide]
182	NC(=O)c1cc(S(=O)(=O)N2CCCCC2)sc1NC(=O)c1cscn1 [Compound 59, N-(3-carbamoyl-5-(piperidin-1-ylsulfonyl)thiophen-2-yl)thiazole-4-carboxamide]
1900	NC(=O)c1cc(S(=O)(=O)N2CCCCC2)sc1NC(=O)c1cnn2ccccc12 [Compound 60, N-(3-carbamoyl-5-(piperidin-1-ylsulfonyl)thiophen-2-yl)pyrazolo[1,5-a]pyridine-3-carboxamide]
> 1000	NC(=O)c1cc(S(=O)(=O)N2CCCCC2)sc1NC(=O)C1(c2ccc(Cl)cc2)CC1 [Compound 61, 2-(1-(4-chlorophenyl)cyclopropanecarboxamido)-5-(piperidin-1-ylsulfonyl) thiophene-3-carboxamide]
2180	NC(=O)c1cc(S(=O)(=O)N2CCCCC2)sc1NC(=O)c1cncs1 [Compound 62, N-(3-carbamoyl-5-(piperidin-1-ylsulfonyl)thiophen-2-yl)thiazole-5-carboxamide]
251	NC(=O)c1cc(S(=O)(=O)N2CCOCC2)sc1NC(=O)c1cc[nH]n1 [Compound 63, N-(3-carbamoyl-5-(morpholinosulfonyl)thiophen-2-yl)-1H-pyrazole-3-carboxamide]
2160	NC(=O)c1cc(S(=O)(=O)N2CCCCC2)sc1NC(=O)c1ccc(-c2cccnc2)s1 [Compound 64, N-(3-carbamoyl-5-(piperidin-1-ylsulfonyl)thiophen-2-yl)-5-(pyridin-3-yl)thiphene-2-carboxamide]
1570	CC(C)(C)c1ccc(C(=O)Nc2sc(S(=O)(=O)N3CCC(F)(F)CC3)cc2C(N)=O)cc1 [Compound 65, 2-(4-tert-butylbenzamido)-5-(4,4-difluoropiperidin-1-ylsulfonyl)thiophene-3-carboxamide]
153	NC(=O)c1cc(S(=O)(=O)N2CCC(F)(F)CC2)sc1NC(=O)c1ccccc1F [Compound 66, 5-(4,4-difluoropiperidin-1-ylsulfonyl)-2-(2-fluorobenzamido)thiophene-3-carboxamide]
250	CC(C)(C)C(=O)Nc1sc(S(=O)(=O)N2CCC(F)(F)CC2)cc1C(N)=O [Compound 67, 5-(4,4-difluoropiperidin-1-ylsulfonyl)-2-pivalamidothiophene-3-carboxamide]
129	CC(C)(C)c1cc(C(=O)Nc2sc(S(=O)(=O)N3CCOCC3)cc2C(N)=O)n[nH]1 [Compound 68, 5-tert-butyl-N-(3-carbamoyl-5-(morpholinosulfonyl)thiophen-2-yl)-1H-pyrazole-3-carboxamide]
147	CCc1cc(C(=O)Nc2sc(S(=O)(=O)N3CCOCC3)cc2C(N)=O)n[nH]1 [Compound 69, N-(3-carbamoyl-5-(morpholinosulfonyl)thiophen-2-yl)-5-ethyl-1H-pyrazole-3-carboxamide]
921	COc1cc(Nc2ccccc2)ccc1C(=O)Nc1sc(S(=O)(=O)N2CCOCC2)cc1C(N)=O [Compound 70, 2-(2-methoxy-4-(phenylamino)benzamido)-5-(morpholinosulfonyl) thiophene-3-carboxamide]
797	CN(Cc1ccccc1)S(=O)(=O)c1cc(C(N)=O)c(NC(=O)C2(c3ccc4c(c3)OC(F)(F)O4)CC2)s1 [Compound 71, 5-(N-benzyl-N-methylsulfamoyl)-2-(1-(2,2-difluorobenzo[d][1,3]dioxol-5-yl)cyclopropanecarboxamido) thiophene-3-carboxamide]
326	CN(Cc1ccccc1)S(=O)(=O)c1cc(C(N)=O)c(NC(=O)c2ccccc2F)s1 [Compound 72, 5-(N-benzyl-N-methylsulfamoyl)-2-(2-fluorobenzamido) thiophene-3-carboxamide]
